According to patent US8846730B2, “Compounds as cannabinoid receptor ligands” (priority 2008, dated 2014):

Experiments:
microglial = conditions: in vitro; cited from earlier work
animal models of pain = conditions: acute thermal, persistent, inflammatory and neuropathic pain models; cited from earlier work
[1] = tested on: rat formalin model of persistent pain; conditions: cited from earlier work
atherosclerotic lesions = conditions: low doses, apolipoprotein E knockout mice; cited from earlier work
[2] = tested on: ovariectomy-induced bone loss; conditions: mice, model for post-menopausal osteoporosis; cited from earlier work
rodent models of pain = conditions: neuropathic, incisional, chronic and acute inflammatory pain; cited from earlier work
human CB2 receptors = human CB2 receptors (Homo sapiens (Human), UniProt P34972); assay: human CB2 radioligand binding assay ([3H]CP 55,940 competition); conditions: HEK293 membranes, 0.5 nM [3H]CP 55,940; read-out: human CB2 (Ki)
Sequence of human CB2 receptors (P34972 whole entry): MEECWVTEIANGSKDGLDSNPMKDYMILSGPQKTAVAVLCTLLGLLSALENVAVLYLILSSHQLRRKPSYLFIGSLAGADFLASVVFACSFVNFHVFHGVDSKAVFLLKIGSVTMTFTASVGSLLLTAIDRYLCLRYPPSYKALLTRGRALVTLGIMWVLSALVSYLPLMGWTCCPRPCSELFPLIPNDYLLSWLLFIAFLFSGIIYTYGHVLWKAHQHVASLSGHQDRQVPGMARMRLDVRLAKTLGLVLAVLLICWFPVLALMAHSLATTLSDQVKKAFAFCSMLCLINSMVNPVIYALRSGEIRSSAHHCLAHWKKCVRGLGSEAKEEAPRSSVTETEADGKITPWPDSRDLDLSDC
In short: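 Membranes from HEK293 cells stably expressing human CB2 (5 μg protein/well) competed against 0.5 nM [3H]CP 55,940 with five concentrations of test ligand (0.01 nM to 10 μM), pH 7.4 Tris buffer with BSA, 90 min at 30 °C. Filtration and scintillation counting; nonspecific binding with 10 μM unlabeled CP 55,940.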

rat CB2 receptors = rat CB2 receptors (Rattus norvegicus (Rat), UniProt Q9QZN9); assay: rat CB2 radioligand binding assay ([3H]CP 55,940 competition); conditions: HEK293 membranes, 0.5 nM [3H]CP 55,940
In short: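 Membranes from HEK293 cells stably expressing rat CB2 (20 μg protein/well) were incubated 45 min at 30 °C with 0.5 nM [3H]CP 55,940 and five displacer concentrations, in pH 7.4 Tris buffer with 0.5 mg/mL BSA. Bound radioactivity was measured by filtration. Nonspecific binding was defined with 10 μM unlabeled CP 55,940.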

[3] = molecular target: rat CB2 receptors (HEK cells) (Rattus norvegicus (Rat), UniProt Q9QZN9); assay: rat CB2 cyclase functional assay (HitHunter cAMP); assay type: cell-based; conditions: HEK cells, forskolin 18 μM; read-out: rat CB2 cyclase (EC50)
[4] = molecular target: rat CB1 receptors (HEK cells) (Rattus norvegicus (Rat), UniProt P20272); assay: rat CB1 cyclase functional assay (HitHunter cAMP); assay type: cell-based
Sequence of rat CB1 receptors (HEK cells) (P20272 whole entry): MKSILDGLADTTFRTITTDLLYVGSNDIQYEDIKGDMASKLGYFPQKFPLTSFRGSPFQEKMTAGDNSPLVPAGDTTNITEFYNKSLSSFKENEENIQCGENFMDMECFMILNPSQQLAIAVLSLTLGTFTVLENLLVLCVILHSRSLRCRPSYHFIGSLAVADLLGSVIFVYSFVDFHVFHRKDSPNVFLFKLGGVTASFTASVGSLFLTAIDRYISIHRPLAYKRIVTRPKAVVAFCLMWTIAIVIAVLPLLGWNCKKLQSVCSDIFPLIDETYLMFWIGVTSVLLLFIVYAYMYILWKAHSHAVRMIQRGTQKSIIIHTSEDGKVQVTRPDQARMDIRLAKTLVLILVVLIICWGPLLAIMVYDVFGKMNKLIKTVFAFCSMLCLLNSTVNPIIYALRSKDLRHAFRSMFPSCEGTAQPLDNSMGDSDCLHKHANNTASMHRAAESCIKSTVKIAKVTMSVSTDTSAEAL

For `CCCC(C)(C)c1ccc2c(c1)OC(C)(C)[C@@H]1CC=C(C)C[C@@H]21` [JWH-133], the “effect on β-amyloid-induced microglial activation and neurotoxicity” value (microglial) is listed as “abrogated β-amyloid-induced microglial activation and neurotoxicity”.

In the case of `CN1CCCCC1Cn1cc(C(=O)c2cc([N+](=O)[O-])ccc2I)c2ccccc21` (centres unmarked) [AM-1241], the analgesic efficacy (animal models of pain) is listed as “robust analgesic efficacy”.

In the case of `CCCCCCC(C)(C)c1cc(OC)c([C@@H]2C=C(CO)[C@@H]3C[C@H]2C3(C)C)c(OC)c1` [HU-308], the antinociceptive response [1] is listed as “elicits an antinociceptive response”.

For (−)-Δ^9-Tetrahydrocannabinol [THC], the “effect on progression of atherosclerotic lesions” value (atherosclerotic lesions) is listed as “slowed the progression of atherosclerotic lesions”.

For SR144528, the “effect on osteoclast activity and bone loss” value [2] is listed as “inhibit osteoclast activity and reverse ovariectomy-induced bone loss”.

For `COc1ccc2c(c1)c(CCN1CCOCC1)c(C)n2C(=O)c1cccc(Cl)c1Cl` [GW405833], the “efficacy in pain models” value (rodent models of pain) is listed as “efficacious”.

With `CC(C)N1CCC[C@H]1COc1ccc(C(F)(F)F)cc1C(=O)/N=c1\sc(C(C)(C)C)cn1C[C@H]1CCCO1` [Example 46, N-[(2Z)-5-tert-butyl-3-[(2R)-tetrahydrofuran-2-ylmethyl]-1,3-thiazol-2(3H)-ylidene]-2-{[(2S)-1-isopropylpyrrolidin-2-yl]methoxy}-5-(trifluoromethyl)benzamide] the Ki (human CB2 receptors) was 102 nM, the Ki (rat CB2 receptors) was 21 nM and the EC50 [3] was 7.32 nM. The EC50 [4] was 5420 nM.

`CC(C)(C)c1cn(C[C@H]2CCCO2)/c(=N/C(=O)c2cc(C(F)(F)F)ccc2OC[C@H]2CCCCN2)s1` [Example 6, N-[(2Z)-5-tert-butyl-3-[(2R)-tetrahydrofuran-2-ylmethyl]-1,3-thiazol-2(3H)-ylidene]-2-[(2R)-piperidin-2-ylmethoxy]-5-(trifluoromethyl)benzamide] gave a Ki (human CB2 receptors) of 30 nM, a Ki (rat CB2 receptors) of 14 nM and an EC50 [3] of 0.4 nM. It also gave an EC50 [4] of 4500 nM.
